Test results taken from ChEMBL document CHEMBL5316357, “Discovery of Linvencorvir (RG7907), a Hepatitis B Virus Core Protein Allosteric Modulator, for the Treatment of Chronic HBV Infection” (J Med Chem, 2023).

Assays:
[1] = Cmax in female Wistar Han rat at 10 mg/kg,po by LC-MS/MS analysis; assay type: ADME, organism-based; design: dose 10 mg/kg, route po; conditions: in vivo
[2] = Clearance in Wistar Han rat at 2 mg/kg,iv by LC-MS/MS analysis; assay type: ADME, organism-based; conditions: in vivo
[3] = target: Cytochrome P450 3A4 (Homo sapiens, UniProt P08684); experiment: Inhibition of CYP3A4 (unknown origin); assay type: ADME
Chain of Cytochrome P450 3A4 (P08684 whole entry): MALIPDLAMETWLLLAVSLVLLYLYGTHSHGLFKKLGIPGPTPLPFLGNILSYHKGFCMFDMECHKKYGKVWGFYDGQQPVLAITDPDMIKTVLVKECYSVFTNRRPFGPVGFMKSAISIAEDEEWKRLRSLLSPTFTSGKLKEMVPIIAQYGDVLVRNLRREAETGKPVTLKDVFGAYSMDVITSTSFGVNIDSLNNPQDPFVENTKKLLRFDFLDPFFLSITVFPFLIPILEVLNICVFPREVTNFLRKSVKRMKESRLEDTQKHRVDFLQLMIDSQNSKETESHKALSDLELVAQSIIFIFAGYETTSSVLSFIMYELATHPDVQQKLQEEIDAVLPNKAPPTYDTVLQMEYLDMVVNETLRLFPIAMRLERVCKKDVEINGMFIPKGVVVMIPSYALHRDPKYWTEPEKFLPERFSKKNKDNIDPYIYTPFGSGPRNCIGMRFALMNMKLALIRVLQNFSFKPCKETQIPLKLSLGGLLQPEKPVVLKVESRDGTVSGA

[4] = Volume of distribution at steady state in mouse plasma at 1 mg/kg,iv; assay type: ADME, organism-based; conditions: read-out: Vdss
[5] = Clearance in rat plasma at 1 mg/kg,iv; assay type: ADME, organism-based
[6] = AUC (0-infinity) in mouse plasma at 1 mg/kg,iv; assay type: ADME, organism-based; design: dose 1 mg/kg, route iv; conditions: in vivo
[7] = AUC (0-infinity) in rat plasma at 3 mg/kg,po; assay type: ADME, organism-based; design: dose 3 mg/kg, route po; conditions: plasma
[8] = AUC (0-infinity) in mouse plasma at 3 mg/kg,po; assay type: ADME, organism-based; design: dose 3 mg/kg, route po; conditions: in vivo
[9] = Oral bioavailability in rat plasma at 3 mg/kg; assay type: ADME, organism-based; conditions: plasma
[10] = Clearance in human hepatocyte at 2 uM measured upto 120 mins by LC-MS/MS analysis; assay type: ADME, cell-based; conditions: hepatocytes
[11] = Clearance in rat hepatocyte at 2 uM measured upto 120 mins by LC-MS/MS analysis; assay type: ADME, cell-based; conditions: hepatocytes
[12] = Clearance in cynomolgus monkey at 2 mg/kg,iv by LC-MS/MS analysis; assay type: ADME, organism-based, Macaca fascicularis; conditions: in vivo
[13] = Clearance in minipig at 2 mg/kg,iv by LC-MS/MS analysis; assay type: ADME, organism-based, Sus scrofa domesticus; conditions: pig, in vivo
[14] = Volume of distribution at steady state in Wistar Han rat at 2 mg/kg,iv by LC-MS/MS analysis; assay type: ADME, organism-based; conditions: in vivo, read-out: Vdss
[15] = Volume of distribution at steady state in cynomolgus monkey at 2 mg/kg,iv by LC-MS/MS analysis; assay type: ADME, organism-based, Macaca fascicularis; conditions: in vivo, read-out: Vdss
[16] = Half life in Wistar Han rat at 2 mg/kg,iv by LC-MS/MS analysis; assay type: ADME, organism-based; conditions: in vivo
[17] = Half life in cynomolgus monkey at 2 mg/kg,iv by LC-MS/MS analysis; assay type: ADME, organism-based, Macaca fascicularis; conditions: in vivo
[18] = Half life in minipig at 2 mg/kg,iv by LC-MS/MS analysis; assay type: ADME, organism-based, Sus scrofa domesticus; conditions: pig, in vivo
[19] = AUClast in Wistar Han rat at 2 mg/kg,iv by LC-MS/MS analysis; assay type: ADME, organism-based; design: dose 2 mg/kg, route iv; conditions: in vivo
[20] = Cmax in male Wistar Han rat at 10 mg/kg,po by LC-MS/MS analysis; assay type: ADME, organism-based; design: dose 10 mg/kg, route po; conditions: in vivo
[21] = Cmax in male Wistar Han rat at 30 mg/kg,po by LC-MS/MS analysis; assay type: ADME, organism-based; design: dose 30 mg/kg, route po; conditions: in vivo
[22] = Cmax in male cynomolgus monkey at 3 mg/kg,po by LC-MS/MS analysis; assay type: ADME, organism-based, Macaca fascicularis; design: dose 3 mg/kg, route po; conditions: in vivo
[23] = Cmax in male minipig at 3 mg/kg,po by LC-MS/MS analysis; assay type: ADME, organism-based, Sus scrofa domesticus; design: dose 3 mg/kg, route po; conditions: pig, in vivo
[24] = Cmax in female Wistar Han rat at 30 mg/kg,po by LC-MS/MS analysis; assay type: ADME, organism-based; design: dose 30 mg/kg, route po; conditions: in vivo
[25] = Cmax in female cynomolgus monkey at 10 mg/kg,po by LC-MS/MS analysis; assay type: ADME, organism-based, Macaca fascicularis; design: dose 10 mg/kg, route po; conditions: in vivo
[26] = Cmax in female cynomolgus monkey at 30 mg/kg,po by LC-MS/MS analysis; assay type: ADME, organism-based, Macaca fascicularis; design: dose 30 mg/kg, route po; conditions: in vivo
[27] = Tmax in male Wistar Han rat at 30 mg/kg,po by LC-MS/MS analysis; assay type: ADME, organism-based; conditions: in vivo
[28] = Tmax in male cynomolgus monkey at 3 mg/kg,po by LC-MS/MS analysis; assay type: ADME, organism-based, Macaca fascicularis; conditions: in vivo
[29] = Tmax in female Wistar Han rat at 3 mg/kg,po by LC-MS/MS analysis; assay type: ADME, organism-based; conditions: in vivo
[30] = Tmax in female Wistar Han rat at 30 mg/kg,po by LC-MS/MS analysis; assay type: ADME, organism-based; conditions: in vivo
[31] = Tmax in female cynomolgus monkey at 10 mg/kg,po by LC-MS/MS analysis; assay type: ADME, organism-based, Macaca fascicularis; conditions: in vivo
[32] = Tmax in female cynomolgus monkey at 30 mg/kg,po by LC-MS/MS analysis; assay type: ADME, organism-based, Macaca fascicularis; conditions: in vivo
[33] = Tmax in female minipig at 10 mg/kg,po by LC-MS/MS analysis; assay type: ADME, organism-based, Sus scrofa domesticus; conditions: pig, in vivo
[34] = Half life in male Wistar Han rat at 30 mg/kg,po by LC-MS/MS analysis; assay type: ADME, organism-based; conditions: in vivo
[35] = Half life in male cynomolgus monkey at 3 mg/kg,po by LC-MS/MS analysis; assay type: ADME, organism-based, Macaca fascicularis; conditions: in vivo
[36] = Half life in male minipig at 30 mg/kg,po by LC-MS/MS analysis; assay type: ADME, organism-based, Sus scrofa domesticus; conditions: pig, in vivo
[37] = Half life in female Wistar Han rat at 3 mg/kg,po by LC-MS/MS analysis; assay type: ADME, organism-based; conditions: in vivo
[38] = Half life in female Wistar Han rat at 10 mg/kg,po by LC-MS/MS analysis; assay type: ADME, organism-based; conditions: in vivo
[39] = AUClast in male cynomolgus monkey at 10 mg/kg,po by LC-MS/MS analysis; assay type: ADME, organism-based, Macaca fascicularis; design: dose 10 mg/kg, route po; conditions: in vivo
[40] = AUClast in male cynomolgus monkey at 30 mg/kg,po by LC-MS/MS analysis; assay type: ADME, organism-based, Macaca fascicularis; design: dose 30 mg/kg, route po; conditions: in vivo
[41] = AUClast in male minipig at 3 mg/kg,po by LC-MS/MS analysis; assay type: ADME, organism-based, Sus scrofa domesticus; design: dose 3 mg/kg, route po; conditions: pig, in vivo
[42] = AUClast in female Wistar Han rat at 10 mg/kg,po by LC-MS/MS analysis; assay type: ADME, organism-based; design: dose 10 mg/kg, route po; conditions: in vivo
[43] = AUClast in female cynomolgus monkey at 10 mg/kg,po by LC-MS/MS analysis; assay type: ADME, organism-based, Macaca fascicularis; design: dose 10 mg/kg, route po; conditions: in vivo
[44] = AUClast in female cynomolgus monkey at 30 mg/kg,po by LC-MS/MS analysis; assay type: ADME, organism-based, Macaca fascicularis; design: dose 30 mg/kg, route po; conditions: in vivo
[45] = AUClast in female minipig at 3 mg/kg,po by LC-MS/MS analysis; assay type: ADME, organism-based, Sus scrofa domesticus; design: dose 3 mg/kg, route po; conditions: pig, in vivo
[46] = AUClast in female minipig at 30 mg/kg,po by LC-MS/MS analysis; assay type: ADME, organism-based, Sus scrofa domesticus; design: dose 30 mg/kg, route po; conditions: pig, in vivo
[47] = Oral bioavailability in male Wistar Han rat at 3 mg/kg by LC-MS/MS analysis; assay type: ADME, organism-based; conditions: in vivo
[48] = Oral bioavailability in male Wistar Han rat at 10 mg/kg by LC-MS/MS analysis; assay type: ADME, organism-based; conditions: in vivo
[49] = Oral bioavailability in male Wistar Han rat at 30 mg/kg by LC-MS/MS analysis; assay type: ADME, organism-based; conditions: in vivo
[50] = Oral bioavailability in male cynomolgus monkey at 3 mg/kg by LC-MS/MS analysis; assay type: ADME, organism-based, Macaca fascicularis; conditions: in vivo
[51] = Oral bioavailability in male minipig at 30 mg/kg by LC-MS/MS analysis; assay type: ADME, organism-based, Sus scrofa domesticus; conditions: pig, in vivo
[52] = Oral bioavailability in female Wistar Han rat at 3 mg/kg by LC-MS/MS analysis; assay type: ADME, organism-based; conditions: in vivo
[53] = Oral bioavailability in female Wistar Han rat at 10 mg/kg by LC-MS/MS analysis; assay type: ADME, organism-based; conditions: in vivo
[54] = Oral bioavailability in female Wistar Han rat at 30 mg/kg by LC-MS/MS analysis; assay type: ADME, organism-based; conditions: in vivo
[55] = Oral bioavailability in female cynomolgus monkey at 10 mg/kg by LC-MS/MS analysis; assay type: ADME, organism-based, Macaca fascicularis; conditions: in vivo
[56] = Oral bioavailability in female cynomolgus monkey at 30 mg/kg by LC-MS/MS analysis; assay type: ADME, organism-based, Macaca fascicularis; conditions: in vivo
[57] = Oral bioavailability in female minipig at 30 mg/kg by LC-MS/MS analysis; assay type: ADME, organism-based, Sus scrofa domesticus; conditions: pig, in vivo
[58] = Toxicity in minipig assessed as NOAEL administrated upto 28 days; design: species or system Sus scrofa domesticus; conditions: pig, in vivo; time < 28 day

In the case of `CCOC(=O)C1=C(CN2CCN3C(=O)N(CC(C)(C)C(=O)O)C[C@@H]3C2)NC(c2nccs2)=N[C@H]1c1cccc(F)c1C` [LINVENCORVIR], the Cmax [1] is reported as 683 ng/mL, the clearance [2] is reported as 30.5 mL/min/kg and the IC50 [3] is reported as over 50 µM. For the same molecule, the Vd [4] was 1 L/kg, the clearance [5] was 30 mL/min/kg and the AUC [6] was 837 ng·h/mL. For the same molecule, the AUC(0-inf) [7] was 70 ng·h/mL, the AUC [8] was 275 ng·h/mL and the bioavailability [9] was 14%. For the same molecule, the CLhep predicted at 2 µM [10] was 5.6 mL/min/kg, the CLhep predicted at 2 µM [11] was 11 mL/min/kg and the clearance [12] was 23.6 mL/min/kg. For the same molecule, the clearance [13] was 24.1 mL/min/kg, the Vd [14] was 1.34 L/kg and the Vd [15] was 0.67 L/kg. The half-life [16] was 1.46 h, the half-life [17] was 1.77 h and the half-life [18] was 2.19 h. For the same molecule, the AUC(0-t) [19] was 1120 ng·h/mL, the Cmax [20] was 512 ng/mL and the Cmax [21] was 1350 ng/mL. For the same molecule, the Cmax [22] was 64 ng/mL, the Cmax [23] was 67.3 ng/mL and the Cmax [24] was 3310 ng/mL. It also gave a Cmax [25] of 336 ng/mL, a Cmax [26] of 841 ng/mL and a Tmax [27] of 1 h. For the same molecule, the Tmax [28] was 0.25 h, the Tmax [29] was 0.5 h and the Tmax [30] was 2 h. The Tmax [31] was 0.5 h, the Tmax [32] was 2 h and the Tmax [33] was 0.5 h. It also gave a half-life [34] of 2.79 h, a half-life [35] of 6.25 h and a half-life [36] of 7.64 h. It also gave a half-life [37] of 2.15 h, a half-life [38] of 1.53 h and an AUC(0-t) [39] of 1430 ng·h/mL. The AUC(0-t) [40] was 7120 ng·h/mL, the AUC(0-t) [41] was 228 ng·h/mL and the AUC(0-t) [42] was 1970 ng·h/mL. It also gave an AUC(0-t) [43] of 1060 ng·h/mL, an AUC(0-t) [44] of 3150 ng·h/mL and an AUC(0-t) [45] of 201 ng·h/mL. The AUC(0-t) [46] was 2550 ng·h/mL, the bioavailability [47] was 13.5% and the bioavailability [48] was 26.2%. It also gave a bioavailability [49] of 50%, a bioavailability [50] of 10.3% and a bioavailability [51] of 20.6%. For the same molecule, the bioavailability [52] was 14.3%, the bioavailability [53] was 36.4% and the bioavailability [54] was 105%. The bioavailability [55] was 18.2%, the bioavailability [56] was 18.6% and the bioavailability [57] was 12.4%. The NOAEL at 672 h [58] was 350 mg/kg.
